# Assay results as given in patent US20050026951A1, “Methods of therapeutic treatment using retinoids with reduced drug interaction” (Allergan, Inc., priority 2003, published 2005).
# Legend:
# RXRs = experiment: RXR activation; type: cell-based
# Source text: (§1) The selection of a retinoid component useful in accordance with the present invention can be accomplished using straightforward, conventional testing and/or assays, such as the transactivation assays set forth in Evans et al., U.S. Pat. No. 5,217,867; 5,262,300; 5,310,662; and 5,906,920, each of which is hereby incorporated in its entirety herein by reference, which are well known in the art. Such testing and/or assays can identify suitable useful retinoid components without undue experimentation.
# In other aspects of the present invention, one or more compounds, for example, from a screening library of compounds, which are known to have or have been tested, using conventional and well known techniques, and found to have useful RAR activity, can be individually or collectively tested for RXR activity using conventional and well known testing procedures. See, for example, the above-noted Evans et al. patents, in particular U.S. Pat. No. 5,906,920.
# RARs = experiment: RAR activation and subtype selectivity; type: cell-based
# Source text: as §1
# Other well known and straightforward test methods and/or assays may be employed to determine the selectivity or specificity of an RAR active compound to RAR-alpha, RAR-beta and RAR-gamma. For example, using conventional and well known assays, for example, such as set forth in Klein et al. U.S. Pat. No. 5,776,699, the disclosure of which is incorporated in its entirety herein by reference, and/or the above-noted Evans et al. patents, the selectively or specificity of a compound to RAR-alpha, RAR-beta and RAR-gamma can be determined. Based on the results of such assays, one can determine whether or not a compound is useful in accordance with one or more aspects of the present invention.
# [1] = oral; cited from earlier work
# [2] = relative to tamoxifen in the absence of bexarotene; cited from earlier work
# sebaceous glands = settings: severe acne; cited from earlier work
# [3] = system: patients with severe nodulocystic acne; experiment: Multicenter double-blind placebo-controlled study of oral tazarotene in severe nodulocystic acne; type: in vivo, human
# Source text: A multicenter, double-blind, randomized, placebo-controlled parallel-group study is undertaken to determine the efficacy of orally administered tazarotene in treating severe nodulocystic acne.
# In addition, washout periods for other medications for this study are: 1 week for vitamin A supplements >5000 IU; 2 weeks for topical anti-acne medications (e.g., retinoids, azelaic acid, benzoyl peroxide); 2 weeks for topical or systemic antibiotic therapy that may alter the course of acne; and 6 months for systemic retinoids.
# Patients are randomized to receive placebo or oral tazarotene (0.75, 1.5, 3, or 6 mg), in a 1:1:1:1:1 ratio once daily for 24 weeks. After this, the patients are followed without treatment for an additional 12 weeks. Patients discontinuing from the treatment period due to adverse effects or lack of efficacy are eligible for entry into the post-treatment phase.
# In the study, overall acne severity is rated as: none (no inflammatory acne lesions); mild (few to several papules or pustules, no nodulocystic lesions); moderate (several to many papules or pustules, few to several nodulocystic lesions); and severe (numerous or extensive papules or pustules, many, for example, at least about 5 or at least about 10, nodulocystic lesions).
# Treatment success is defined as at least moderate (about 50%) improvement on the following 7-point global response scale: • 0=completely cleared • 1=almost cleared (about 90% improvement) • 2=marked response (about 75% improvement) • 3=moderate response (about 50% improvement) • 4=slight response (about 25% improvement) • 5=condition unchanged • 6=condition worsened
# In this study, facial nodulocystic lesion count includes lesions greater than 5 mm in size. Facial papular/pustular lesion count includes lesions less than or equal to 5 mm in size. Facial non-inflammatory lesion count includes open and closed comedones.
# Sebum output is assessed every 4 weeks at selected centers using the Sebutape® patches, sold by Cuderm Corporation. Urinalysis, chemistry, and hematology values are monitored. Bone formation and resorption assessments (serum bone alkaline phosphatase and serum amino terminal telopeptides, respectively) at selected centers are monitored.
# Bone mineral density of spine and proximal femur at selected centers is monitored. Ligament calcification or osteophyte formation (lateral X-ray of the cervical and thoracic spine, and ankle calcaneous) is monitored. Epiphyseal growth plate closure (internal oblique X-ray of the ankle in patients less than or equal to 21 years old) is monitored.
# [4] = system: patients with moderate to very severe plaque psoriasis; experiment: Open-label extension study of oral tazarotene in plaque psoriasis non-responders; type: in vivo, human; settings: 4.5 mg once daily, extension treatment period, across both groups
# Method: Two multicenter, double-blind, placebo-controlled studies ware conducted to evaluate the efficacy and safety of oral tazarotene (4.5 mg once daily) in patients with moderate to very severe plaque psoriasis. […] Efficacy evaluations include overall lesional assessment (OLA), percent body surface area involvement, global response to treatment, plaque elevation, scaling, and erythema. OLA is graded on a 6-point scale (0=none, 1=minimal, 2=mild, 3=moderate, 4=severe, 5=very severe).
# [5] = system: patients having nodulocystic acne; experiment: Two placebo-controlled dose-ranging safety studies of oral tazarotene in nodulocystic acne; type: in vivo, human; settings: for Emotional lability, patients: all cases mild
# Method: Two placebo-controlled dose-ranging studies are conducted to evaluate the safety of oral tazarotene in patients having nodulocystic acne. In the first study, patients receive orally administered tazarotene at daily doses of 0.4 mg to 2.8 mg in 96 (71+25) patients (12 weeks treatment plus 12 weeks post-treatment). In the second study, daily doses of 0.75 mg to 6 mg tazarotene are administered to 181 patients (24 weeks treatment plus 12 weeks post-treatment).
# patients = experiment: Two 24-week placebo-controlled safety studies of oral tazarotene plus 16- to 24-week dose-response evaluations; type: in vivo, human; settings: 4.5 mg orally once daily
# Method: Two multicenter, double-blind, randomized, placebo-controlled 24-week studies of identical design are conducted to evaluate the safety of oral tazarotene. In addition, 16- to 24-week dose-response evaluations are performed.
# In the two safety trials, the incidence of adverse side effects with a 4.5 mg dose administered orally once daily is compared to the incidence of the same side effects with a placebo. […] The majority of these were mild in severity and typical of adverse effects associated with oral retinoids.
# [6] = Food effect on pharmacokinetics of tazarotenic acid after 6.3 mg oral tazarotene (high-fat breakfast vs 8-10 hour fast); type: in vivo, human; settings: fed (high-fat meal) vs fasted
# Method: For the purposes of this application, the bioavailability of a drug may be based on the human pharmokinetic parameters of maximum blood concentration (Cmax) and Area under the blood concentration-time curve (AUC).
# The LC-MS/MS test for simultaneous detection of tazarotene and tazarotenic acid may be run as follows. One ml of plasma (EDTA-treated) is diluted with 1.0 ml of water. Diluted plasma is extracted using solid phase extraction (SPE) on a C18 cartridge. The eluate is evaporated, reconstituted in a water/methanol-based mobile phase, and injected onto a 4.6×50 mm, 3 μm pore size C-8 reverse phase high pressure liquid chromatography (HPLC) column (Agilent, Wilmington, Del.). Compounds are gradient-eluted at 1.2 mL/min and detected using an API 3000 triple quadrupole mass spectrometer with an Atmospheric Pressure Chemical Ionization (APCI) source (PE-Sciex, Concord, Ontario, Canada). […] The specific precursor-product ion pair monitored are m/z 352→324 for tazarotene, m/z […] for the tazarotene internal standard, m/z 324→294 for tazarotenic acid, and m/z 331→298 for the tazarotenic acid internal standard. The lower limit of quantitation at assay range tested is 0.1 ng/mL, with a coefficient of variation and deviation from nominal concentration of <15%.
structure (smiles),measurement,setting,value
CC1(C)CC[S+]([O-])c2ccc(C#Cc3ccc(C(=O)O)cn3)cc21 (stereo not drawn) [AGN 190844],Activation of the RXRs,RXRs,does not activate
same,Activation of the RARs,RARs,does not activate
COc1cc(C)c(/C=C/C(C)=C/C=C/C(C)=C/C(=O)O)c(C)c1C [acitretin],Bioavailability in the presence of food,[1],increased in the presence of food
C=C(c1ccc(C(=O)O)cc1)c1cc2c(cc1C)C(C)(C)CCC2(C)C [bexarotene],Plasma concentration of coadministered tamoxifen,[2],reduced plasma concentration of tamoxifen
same,Bioavailability in the presence of food,[1],increased in the presence of food
CC1=C(/C=C/C(C)=C/C=C/C(C)=C\C(=O)O)C(C)(C)CCC1 [isotretinoin],Decrease in sebum secretion rate,sebaceous glands,about 90%
same,Bioavailability in the presence of food,[1],increased in the presence of food
CCOC(=O)c1ccc(C#Cc2ccc3c(c2)C(C)(C)CCS3)nc1 [tazarotene],"Patients withdrawing due to adverse events, treatment period",[3]; 0.75 mg group (2/35),6%
same,"Patients withdrawing due to adverse events, treatment period",[3]; 1.5 mg group (0/37),0%
same,"Patients withdrawing due to adverse events, treatment period",[3]; 3 mg group (2/37),5%
same,"Patients withdrawing due to adverse events, treatment period",[3]; 6 mg group (1/36),3%
same,Reduction of overall acne severity vs placebo,"[3]; 6 mg, from week 16 until end of post-treatment phase (p ≦0.01)",significantly more than placebo
same,"Abnormalities in liver function test results or elevated triglycerides, total cholesterol, or HDL cholesterol","[3]; 0.75 to 6 mg once daily, 24 weeks",not generally associated
same,Sebum secretion (Sebutape method) relative to placebo,"[3]; 0.75 to 6 mg once daily, assessed every 4 weeks",does not substantially reduce sebum secretion
same,Incidence of arthralgia,[4],20%
same,Incidence of asthenia,[4],6%
same,Incidence of back pain,[4],11%
same,Incidence of cheilitis,[4],70%
same,Incidence of dry skin,[4],25%
same,Incidence of headache,[4],11%
same,Incidence of hypertriglyceridemia,[4],6%
same,Incidence of infection,[4],10%
same,Incidence of myalgia,[4],15%
same,Severe dry skin,[5]; 3 mg and 6 mg groups,No patient
same,"Emotional lability, patients",[5]; 3 mg group (1 patient),3%
same,"Depression, patients","[5]; 3 mg group (3 patients: 2 mild, 1 severe)",8%
same,"Emotional lability, patients",[5]; 6 mg group (5 patients),14%
same,"Changes in urinalysis, chemistry, or hematology measures (liver function tests, triglycerides, total cholesterol, HDL cholesterol)",[5]; 0.4 to 6 mg daily,no consistent dose-related clinically significant changes
same,"Ligament calcification, osteophyte formation, changes in serum bone alkaline phosphatase, serum amino terminal telopeptides, bone density",[5]; 0.4 to 6 mg daily,not associated with any clinically significant
same,Patients withdrawing from either study due to adverse events,[5]; all groups of both studies incl. placebo (7/277),2.5%
same,"Incidence of altered hormone levels (elevated TSH and T4, decreased T4, abnormal thyroid function test)",patients,0%
same,"Incidence of hypertriglyceridemia, hypercholesterolemia, abnormal liver function tests, increased ALT, increased AST, desquamation, eye dryness, alopecia",patients; vs placebo,essentially the same incidence with oral tazarotene as with placebo
CC1(C)CCSc2ccc(C#Cc3ccc(C(=O)O)cn3)cc21 [tazarotenic acid],Activation of the RXRs,RXRs,does not activate
same,RAR subtype selectivity,RARs,selectivity for RAR-β and RAR-γ
same,Cmax average ratio (test/reference) of tazarotenic acid,[6]; Day 0,1.00
same,Cmax average ratio (test/reference) of tazarotenic acid,[6]; Day 9,0.829
